Laboratory results: PubChem BioAssay (NCI)
“And” between values parts separate entries of the source, which are not always exact repeats. Equal values may be shown once.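 In this assay, cells in 96-well plates receive the compound at five concentrations for 48 hours. Endpoints are linearly interpolated between the surrounding concentrations. Here, GI50 denotes the concentration required for 50% inhibition of growth. TGI: concentration producing complete growth inhibition.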

Key:
Experiment in all cases: NCI tumour cell line growth inhibition, 48 h
SN12C renal = tested on: SN12C renal
HS 578T breast = tested on: HS 578T breast
BT-549 breast = tested on: BT-549 breast
SK-MEL-2 melanoma = tested on: SK-MEL-2 melanoma
MALME-3M melanoma = tested on: MALME-3M melanoma
IGROV1 ovarian = tested on: IGROV1 ovarian
NCI-H226 lung = tested on: NCI-H226 lung
A549 NSCLC = tested on: A549 NSCLC
OVCAR-5 ovarian = tested on: OVCAR-5 ovarian
T-47D breast = tested on: T-47D breast

Row | Structure (SMILES) | GI50 (SN12C renal) [µM] | TGI (SN12C renal) [µM] | GI50 (HS 578T breast) | TGI (HS 578T breast) [µM] | GI50 (BT-549 breast) [µM] | TGI (BT-549 breast) [µM] | GI50 (SK-MEL-2 melanoma) [µM] | TGI (SK-MEL-2 melanoma) [µM] | GI50 (MALME-3M melanoma) [µM] | TGI (MALME-3M melanoma) [µM] | GI50 (IGROV1 ovarian) | TGI (IGROV1 ovarian) [µM] | GI50 (NCI-H226 lung) [µM] | TGI (NCI-H226 lung) [µM] | GI50 (A549 NSCLC) | TGI (A549 NSCLC) | GI50 (OVCAR-5 ovarian) [µM] | TGI (OVCAR-5 ovarian) [µM] | GI50 (T-47D breast) [µM] | TGI (T-47D breast) [µM]
1 | O=C(c1cc(F)c(Cl)cc1Cl)N1N=C(c2ccccc2)CC1(O)c1ccccc1 (stereo not drawn) | 18.7 | 40.5 | 23.8 µM | 58.8 | 17.7 | 40.5 | 18.1 | 38 | 25.5 | 55.6 | 15.2 µM | 36.7 | 17.3 | 36.5 | 27.8 µM | > 100 µM | 23.3 | 70.9 | 18.1 | 53.7
2 | COc1ccc2c(c1)nc(N)c1c3cc(OC)c(OC)cc3cn21 | 0.147 | 17.5 | 0.159 µM | 32.3 | 0.827 | 15.2 | 2.13 | 24.1 | 9.39 | 37.7 | 0.249 µM | 20.1 | – | 16.8 | 0.0925 µM | 16.6 µM | 0.0749 | 18.8 | 0.721 | 25.5
3 | O=[N+]([O-])c1ccc(-c2nc(N(CCO)CCO)c3ccccc3n2)o1 | 0.292 | 7.72 | 0.346 µM | 1.99 | 0.174 | 0.758 | 0.158 | 0.361 | 0.155 | 0.373 | 0.151 µM | 0.45 | 0.216 | 1.05 | 0.128 µM | 0.822 µM | 0.562 | 5.1 | 0.319 | 5.02
4 | OC(C1=C/C(=C\c2ccncc2)c2ccccc21)c1ccncc1 (stereo not drawn) | – | 35.4 | – | > 54.1 | – | 57.9 | – | 33.8 | – | 38.3 | – | 52.4 | – | 31.1 | – | 41.8 µM | – | 37.4 | – | 33.7
5 | CCN(CC)CCOc1ccc(Nc2ncc3cc(-c4ccc(O)cc4)c(=O)n(C)c3n2)cc1 | 0.212 | 21.2 | 0.274 µM | 19.8 | 3.33 | 16.5 | 18.9 | 39.5 | 0.734 | 2.44 | 0.0803 µM | 15.9 | 4.61 | 22.6 | 13.8 µM | 30.7 µM | 10.7 | 30.8 | 12.2 | 31.8
6 | COc1ccc(/C=C\c2cc(OC)c(OC)c(OC)c2)cc1OC(=O)C(N)CCC(=O)O (stereo not drawn) | – | > 100 | 0.000788 µM and 0.00046 µM | – | – | 0.00299 | 7.35e-05 | > 100 | 0.00136 | – | 0.00415 µM and 0.000539 µM and 0.000824 µM | > 100 | – | 0.0415 | 0.00398 µM and 0.0108 µM | 28.4 µM and > 100 µM | – | > 100 | > 100 | > 100
7 | N#Cc1ccccc1NC(=O)/C(=N\NC(=O)c1ccncc1)C(c1cnc2ccc([N+](=O)[O-])cc2n1)[N+](=O)[O-] (stereo not drawn) | – | > 100 | – | > 100 | – | > 100 | – | > 100 | – | > 100 | – | > 100 | – | > 100 | – | > 100 µM | – | > 100 | – | > 100
8 | CCCc1ccc(S(=O)(=O)N[C@H]2CC[C@H]3[C@@H]4CCc5cc(O)ccc5[C@H]4CC[C@]23C)cc1 | 1.75 | 3.44 | 3.33 µM | 12.9 | 2.47 | 5.89 | 2.72 | 7.12 | 2.82 | 8.07 | 3.76 µM | 14.3 | 1.57 | 3.15 | 3.22 µM | 12.8 µM | 2.06 | 4.44 | 3.54 | 10.8
9 | CCN1C(=O)N(CC)C2C1NN=c1s/c(=C3\C(=O)N(CC(C)C)c4ccccc43)c(=O)n12 (stereo not drawn) | 1.95 | > 100 | 0.665 µM | 23.9 | 2.45 | > 100 | 2.98 | 27.8 | 0.885 | > 77.7 | 0.808 µM | > 55.7 | 2.39 | > 100 | 0.957 µM | > 100 µM | 2.27 | > 100 | 0.311 | > 100
10 | COc1ccc(CNc2nc3cc(N)cc(N)c3nc2-c2ccccc2)cc1OC | 14 | 27.9 | 23.4 µM | > 68.6 | 14.8 | 32.5 | 13.9 | 49.5 | 3.98 | 14.4 | 13.5 µM | 38.1 | 15.4 | 30.8 | 23.6 µM | > 70.6 µM | 20.6 | 38.9 | 4.16 | > 27.5
11 | N#CC1=C(N)NC(=S)NC12Nc1ccccc1O2 (stereo not drawn) | 25.2 | 90 | 19.1 µM | 60.2 | 48.2 | > 100 | 20.9 | 53.4 | > 100 | > 100 | 3.17 µM | 24.9 | 30.5 | > 100 | 37.2 µM | > 100 µM | 40.7 | > 100 | 41.5 | > 100
12 | COC(=O)COc1ccc(/C=C2\N=C(c3ccccc3)N(c3cc(C(F)(F)F)ccc3Cl)C2=O)cc1 | > 100 | > 100 | 83.7 µM | > 100 | 28.1 | 94.2 | 83.5 | > 100 | 54.1 | > 100 | 29.1 µM | > 100 | 52.2 | > 100 | > 100 µM | > 100 µM | > 100 | > 100 | 82.9 | > 100
13 | NCCCC(=O)Nc1ccncc1 | > 100 | > 100 | > 100 µM | > 100 | > 100 | > 100 | > 100 | > 100 | > 100 | > 100 | > 100 µM | > 100 | > 100 | > 100 | > 100 µM | > 100 µM | > 100 | > 100 | > 100 | > 100
14 | CCOC(=O)Cc1csc(/N=C2\NC(=O)/C(=C3\C(=O)N(C)c4ccccc43)S2)n1 | 31 | > 100 | 66.7 µM | > 100 | 48.4 | > 100 | 24.2 | > 100 | 21.8 | 95.2 | 20.6 µM | 69.2 | 28.6 | > 100 | 36.5 µM | > 100 µM | > 100 | > 100 | 81.5 | > 100
15 | C/C=C(\C)C(=O)N[C@H]1[C@@H](OC(C)=O)C[C@]2(C)C3CC[C@@]4(C)C(CC[C@@H]4C(C)N(C)C)C3CCC2[C@H]1O (stereo partly drawn) | 5.55 | 19.6 | 12.4 µM | 43.1 | 4.81 | 21.6 | 2.3 | 6.38 | 2.03 | 6.43 | 5.88 µM | 16.8 | 5.53 | 22 | 5.41 µM | 20.3 µM | 13.8 | 28.2 | 2.06 | 10.3
16 | Cn1ccc2c(NCCN)c3c(c(NCCN)c21)C(=O)c1ccccc1C3=O | 0.465 | 1.61 | 1.84 µM | 5.26 | 7.62 | 23.7 | 2.33 | 11.5 | 3.67 | 15.2 | 0.824 µM | > 31.8 | 1.3 | 5.8 | 2.83 µM | 12.1 µM | 2.78 | 12 | 27.4 | 62
17 | CCCCCNC(=O)[C@@H]1CCCN2C(=O)CC[C@H](NC(=O)[C@H](Cc3ccc(OP(=O)(O)O)cc3)NC(C)=O)C(=O)N12 | > 25 | > 25 | > 25 µM | > 25 | > 25 | > 25 | > 25 | > 25 | > 25 | > 25 | > 25 µM | > 25 | > 25 | > 25 | > 25 µM | > 25 µM | > 25 | > 25 | > 25 | > 25
